This is an account of results in patent US7163941B2, “Pyrido[2,3-d]pyrimidin-7-carboxylic acid derivatives, their manufacture and use as pharmaceutical agents” (Hoffmann-La Roche Inc., priority 2003, dated 2007).

One assay deals with T1, Lck (p56^lck, active) (Homo sapiens, UniProt P06239).
T1 construct: purchased Upstate (UBI)
Nature of the assay: SRC-Inhibitor-Assay (time-resolved fluorescence), Lck enzyme. The assay is classed as biochemical. The following applies: ATP 5 μM, peptide 10 μM, enzyme 2.5 U/ml, pre-incubation 15 min at 15° C. The protocol: (§1) The activity of the compounds according to this invention as inhibitors for the src-family tyrosine kinases was shown by using the following assay.
(§2) SRC-Inhibitor-Assay Parameters:
(§3) • Reaction mixture: • ATP 5 μM • Peptide (R+Ja133-Ro): 10 μM • Ja133-Ro 196 nM • Ro 9.8 μM • PT66 230 ng/ml • Assay buffer: 4 mM MgCl2 • 2 mM TCEP • 50 mM HEPES • 0,1% Tween 20 • pH 7.3 • Enzyme: 2.5 U/ml • Inhibitor: max. 25 μM • min. 0.42 nM Material: • Eu-labelled phosphotyrosine antibody: -for Lck Cisbio Mab PT66-K, • for Src EG&G Wallac PT66 Eu-W1024 (all commercially available). • Peptides: Ro: NH2-A-E-E-E-I-Y-G-E-F-E-A-K-K-K-K-CONH2 (SEQ ID NO: 1), and • Ja133-Ro: Ja133-G-Aminocaprylic acid-A-E-E-E-I-Y-G-E-F-E-A-K-K-K-K-CONH2 (SEQ ID NO: 2), wherein Ja133 is LightCycler-Red 640-N-hydroxy succinimide ester; • whereby both peptides were synthesized by an optimized solid phase peptide synthesis protocol (Merrifield, Fed. Proc. Fed. Amer. Soc. Exp. Biol. 21 (1962) 412) on a Zinsser SMP350 peptide synthesizer. Shortly, the peptide was assembled on 160 mg (22.8 μmol scale) of a Rink-Linker modified polystyrene solid phase by repeatedly conjugating an twenty fold excess of aminoacids each protected by temporary piperidine labile Fmoc- and permanent acid labile tert-Bu-, BOC- and Otert-Bu-groups depending on the side chain function. The substrate sequence AEEEIYGEFEAKKKK (SEQ ID NO: 1) was N-terminal additionally mounted with the spacer amino acids Aminocaprylic acid and Glycin. After cleavage of the N-terminal temporary protecting group the still attached and protected peptide was labeled with a 1.5 fold amount of LightCycler-Red 640-N-hydroxy succinimide ester (purchased by Roche Diagnostics GmbH) and triethylamine. After 3 hrs. the resin was washed with Dimethylformamide and Isopropanol until the eluates of the blue resin got colo-rless. […] The substrate was finally isolated by a preparative reverse phase HPLC purification. The purification yielded 12.2 mg RP-HPLC single peak pure blue material (lyophilisate). The identity was proven by MALDI mass spectroscopy [2720.0]. • Enzymes: Upstate Lck (p56^lck, active), Upstate Src (p60^c-src, partially purified) were purchased from UBI. • Time-resolved Fluorescence Assay: Reader: Perkin Elmer, Wallac Viktor 1420-040 multilabel counter; Liquid handling system: Beckman Coulter, Biomek 2000. ATP, Tween 20, HEPES were purchased from Roche Molecular Biochemicals, MgCl2 and MnCl2 were purchased from Merck Eurolab, TCEP was purchased from Pierce, 384 Well low volume fluorescence plates was purchased from Falcon. Assay Description:
(§4) At first the enzyme is pre-incubated for 15 min. at 15° C. in aqueous solution with corresponding amounts of inhibitors according to this invention. Then the phosphorylation reaction is started by adding a reaction mixture, containing ATP, Peptide and PT66, and subsequent shaking. The proceeding of this reaction is immediately monitored using time resolved fluorescence spectroscopy in a suitable well plate reader.
(§5) The IC50-values can be obtained from the reaction rates by using a non-linear curve fit (Excelfit).

Assay [1] addresses T2, Src (p60^c-src, partially purified) (Homo sapiens, UniProt P12931).
T2 construct: purchased Upstate (UBI)
Nature of the assay: SRC-Inhibitor-Assay (time-resolved fluorescence), Src enzyme. The assay is classed as biochemical. The settings on record: ATP 5 μM, peptide 10 μM, enzyme 2.5 U/ml, pre-incubation 15 min at 15° C. As for the experimental part: as §1, §2, §3, §4, §5

One may read the IC50 as the point on the concentration scale where inhibition reaches its midpoint. Low values mean greater potency in that assay, high ones weaker potency in that assay.

T1 sequence (P06239 whole entry, species assumed): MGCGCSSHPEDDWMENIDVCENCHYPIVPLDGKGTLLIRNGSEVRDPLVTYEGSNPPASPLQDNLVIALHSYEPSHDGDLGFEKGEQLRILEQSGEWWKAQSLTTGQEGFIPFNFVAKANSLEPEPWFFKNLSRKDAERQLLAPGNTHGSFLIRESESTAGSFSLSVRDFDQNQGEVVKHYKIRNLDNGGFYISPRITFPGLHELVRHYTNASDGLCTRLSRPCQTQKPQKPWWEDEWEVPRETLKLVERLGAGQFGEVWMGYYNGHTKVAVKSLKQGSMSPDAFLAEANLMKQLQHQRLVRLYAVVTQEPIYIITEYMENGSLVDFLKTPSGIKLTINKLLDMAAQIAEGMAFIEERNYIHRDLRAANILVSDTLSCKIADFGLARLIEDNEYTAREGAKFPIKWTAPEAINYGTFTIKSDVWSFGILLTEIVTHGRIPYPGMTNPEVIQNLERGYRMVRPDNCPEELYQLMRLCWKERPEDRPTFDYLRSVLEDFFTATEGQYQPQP
T2 sequence (P12931 whole entry, species assumed): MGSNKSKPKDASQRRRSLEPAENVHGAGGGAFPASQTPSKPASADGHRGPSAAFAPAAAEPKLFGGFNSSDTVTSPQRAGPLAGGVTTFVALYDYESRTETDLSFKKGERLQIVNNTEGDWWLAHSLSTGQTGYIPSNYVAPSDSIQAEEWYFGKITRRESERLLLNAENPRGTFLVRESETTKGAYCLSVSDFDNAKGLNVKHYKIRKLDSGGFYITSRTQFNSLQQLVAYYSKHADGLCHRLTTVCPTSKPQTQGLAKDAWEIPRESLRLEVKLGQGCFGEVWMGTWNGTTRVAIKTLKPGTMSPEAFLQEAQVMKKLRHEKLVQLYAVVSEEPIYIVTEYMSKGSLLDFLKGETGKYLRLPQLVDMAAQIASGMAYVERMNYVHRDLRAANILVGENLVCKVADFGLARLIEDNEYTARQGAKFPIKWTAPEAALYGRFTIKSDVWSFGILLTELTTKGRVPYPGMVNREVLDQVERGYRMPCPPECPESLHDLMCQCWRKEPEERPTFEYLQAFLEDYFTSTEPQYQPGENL

As for `O=C(NCCN1CCNC1=O)c1nc2nc(Nc3ccc(F)cc3)ncc2cc1-c1ccccc1Br` [Example 3-25, 6-(2-Bromo-phenyl)-2-(4-fluoro-phenylamino)-pyrido[2,3-d]pyrimidine-7-carboxylic acid[2-(2-oxo-imidazolidin-1-yl)-ethyl]-amide], the IC50 against Lck (p56^lck, active) was 370 nM; in assay [1], 157 nM.
The like results for `CN(C)CCCNC(=O)c1nc2nc(Nc3ccc(F)cc3)ncc2cc1-c1ccccc1Br` [Example 3-14, 6-(2-Bromo-phenyl)-2-(4-fluoro-phenylamino)-pyrido[2,3-d]pyrimidine-7-carboxylic acid (3-dimethylamino-propyl)-amide] were, in that order, 233 nM and 21.7 nM.
In the case of `CN1CCC(NC(=O)c2nc3nc(Nc4ccc(F)cc4)ncc3cc2-c2ccccc2Br)CC1` [Example 3-21, 6-(2-Bromo-phenyl)-2-(4-fluoro-phenylamino)-pyrido[2,3-d]pyrimidine-7-carboxylic acid (1-methyl-piperidin-4-yl)-amide], the IC50 on Lck (p56^lck, active) came out at 638 nM; in assay [1], 96.2 nM.
On the same counts, the results for `CN(C)CCNC(=O)c1nc2nc(Nc3ccc(F)cc3)ncc2cc1-c1ccccc1Br` [Example 3-12, 6-(2-Bromo-phenyl)-2-(4-fluoro-phenylamino)-pyrido[2,3-d]pyrimidine-7-carboxylic acid (2-dimethylamino-ethyl)-amide] are 350 nM and 34.1 nM.
For `Cc1cc(CNC(=O)c2nc3nc(Nc4ccc(F)cc4)ncc3cc2-c2ccccc2Br)nn1C` [Example 3-41, 6-(2-Bromo-phenyl)-2-(4-fluoro-phenylamino)-pyrido[2,3-d]pyrimidine-7-carboxylic acid (1,5-dimethyl-1H-pyrazol-3-ylmethyl)-amide], the IC50 at Lck (p56^lck, active) was 126 nM; in assay [1], 26 nM.
For the compound `O=C(NCCN1CCOCC1)c1nc2nc(Nc3ccc(F)cc3)ncc2cc1-c1ccccc1Br` [Example 3-22, 6-(2-Bromo-phenyl)-2-(4-fluoro-phenylamino)-pyrido[2,3-d]pyrimidine-7-carboxylic acid (2-morpholin-4-yl-ethyl)-amide], the IC50 was found to be 662 nM against Lck (p56^lck, active) and 158 nM in assay [1].
In the case of `CS(=O)(=O)NCCNC(=O)c1nc2nc(Nc3ccc4c(c3)OC(CO)CO4)ncc2cc1-c1ccccc1Br` (stereo not shown) [Example 7-24, 6-(2-bromo-phenyl)-2-(3-hydroxymethyl-2,3-dihydro-benzo[1,4]dioxin-6-ylamino)-pyrido[2,3-d]pyrimidine-7-carboxylic acid (2-methanesulfonylamino-ethyl)-amide], the half-inhibitory concentration (IC50) at Lck (p56^lck, active) came out at 9 nM; in assay [1], 4 nM.
Turning to `O=C(N[C@@H]1CCCNC1)c1nc2nc(Nc3ccc(F)cc3)ncc2cc1-c1ccccc1Br` [Example 3-34, (R)-6-(2-Bromo-phenyl)-2-(4-fluoro-phenylamino)-pyrido[2,3-d]pyrimidine-7-carboxylic acid piperidin-3-ylamide], the IC50 at Lck (p56^lck, active) was determined as 127 nM; in assay [1] it was 97.9 nM.
On to `NS(=O)(=O)CCNC(=O)c1nc2nc(Nc3ccc(F)cc3)ncc2cc1-c1ccccc1Br` [Example 3-37, 6-(2-Bromo-phenyl)-2-(4-fluoro-phenylamino)-pyrido[2,3-d]pyrimidine-7-carboxylic acid (2-sulfamoyl-ethyl)-amide], for which the IC50 against Lck (p56^lck, active) was 189 nM; in assay [1], 21 nM.
For the compound `O=C(NC[C@H]1CCCN1)c1nc2nc(Nc3ccc(F)cc3)ncc2cc1-c1ccccc1Br` [Example 3-48, (R)-6-(2-Bromo-phenyl)-2-(4-fluoro-phenylamino)-pyrido[2,3-d]pyrimidine-7-carboxylic acid (pyrrolidin-2-ylmethyl)-amide], the IC50 at Lck (p56^lck, active) amounted to 38.1 nM; in assay [1], 2.1 nM.
Consider `O=C(NCCc1cnc[nH]1)c1nc2nc(Nc3ccc(F)cc3)ncc2cc1-c1ccccc1Br` [Example 3-39, 6-(2-Bromo-phenyl)-2-(4-fluoro-phenylamino)-pyrido[2,3-d]pyrimidine-7-carboxylic acid [2-(3H-imidazol-4-yl)-ethyl]-amide], for which the concentration for half-maximal inhibition (IC50) at Lck (p56^lck, active) was determined as 114 nM; in assay [1], 24.3 nM.
Regarding `O=C(NC1CN2CCC1CC2)c1nc2nc(Nc3ccc(F)cc3)ncc2cc1-c1ccccc1Br` (stereo not shown) [Example 3-35, 6-(2-Bromo-phenyl)-2-(4-fluoro-phenylamino)-pyrido[2,3-d]pyrimidine-7-carboxylic acid (1-aza-bicyclo[2.2.2]oct-3-yl)-amide], the half-inhibitory concentration (IC50) against Lck (p56^lck, active) came to 251 nM; in assay [1] it was 73.1 nM.
Regarding `NS(=O)(=O)CCNC(=O)c1nc2nc(Nc3ccc4c(c3)S(=O)(=O)CCO4)ncc2cc1-c1ccccc1Br` [Example 7-13, 6-(2-bromo-phenyl)-2-(4,4-dioxo-3,4-dihydro-2H-4lambda*6*-benzo[1,4]oxathiin-6-ylamino)-pyrido[2,3-d]pyrimidine-7-carboxylic acid (2-sulfamoyl-ethyl)-amide], the IC50 at Lck (p56^lck, active) amounted to 232 nM; in assay [1] it was 11.3 nM.
For the compound `CN(C)CC(=O)NNC(=O)c1nc2nc(Nc3ccc(F)cc3)ncc2cc1-c1ccccc1Br` [Example 3-46, 6-(2-Bromo-phenyl)-2-(4-fluoro-phenylamino)-pyrido[2,3-d]pyrimidine-7-carboxylic acid N′-(2-dimethylamino-acetyl)-hydrazide], the IC50 was 38.1 nM against Lck (p56^lck, active) and 16.8 nM in assay [1].
The like results for `N#Cc1nc2nc(Nc3ccc(N4CCOCC4)cc3)ncc2cc1-c1ccccc1Br` [Example 4-1, 6-(2-Bromo-phenyl)-2-(4-morpholin-4-yl-phenylamino)-pyrido[2,3-d]pyrimidine-7-carbonitrile; compound with trifluoro-acetic acid] were, in that order, 20.1 nM and 6.5 nM.
On to `CNCCNC(=O)c1nc2nc(Nc3ccc(F)cc3)ncc2cc1-c1ccccc1Br` [Example 3-17, 6-(2-Bromo-phenyl)-2-(4-fluoro-phenylamino)-pyrido[2,3-d]pyrimidine-7-carboxylic acid (2-methylamino-ethyl)-amide], for which the IC50 worked out at 39.8 nM on Lck (p56^lck, active) and 6.2 nM in assay [1].
The like results for `CC(CN(C)C)NC(=O)c1nc2nc(Nc3ccc(F)cc3)ncc2cc1-c1ccccc1Br` (stereo not shown) [Example 3-23, 6-(2-Bromo-phenyl)-2-(4-fluoro-phenylamino)-pyrido[2,3-d]pyrimidine-7-carboxylic acid (2-dimethylamino-1-methyl-ethyl)-amide] were, in that order, 573 nM and 195 nM.
`CN1CCN(c2ccc(Nc3ncc4cc(-c5ccccc5Br)c(C(=O)NCCNS(C)(=O)=O)nc4n3)cc2)CC1` [Example 7-19, 6-(2-bromo-phenyl)-2-[4-(4-methyl-piperazin-1-yl)-phenylamino]-pyrido[2,3-d]pyrimidine-7-carboxylic acid (2-methanesulfonylamino-ethyl)-amide]: the IC50 amounted to 2.1 nM against Lck (p56^lck, active) and 1 nM in assay [1].
Consider `CCN(CC)CCOc1ccc(Nc2ncc3cc(-c4ccccc4Br)c(C#N)nc3n2)cc1` [Example 4-2, 6-(2-Bromo-phenyl)-2-[4-(2-diethylamino-ethoxy)-phenylamino]-pyrido[2,3-d]pyrimidine-7-carbonitrile], for which the IC50 stood at 5.1 nM against Lck (p56^lck, active) and 1.8 nM in assay [1].
As for `NC(=O)c1nc2nc(Nc3ccc(S(N)(=O)=O)cc3)ncc2cc1-c1ccccc1Br` [Example 3-4, 6-(2-Bromo-phenyl)-2-(4-sulfamoyl-phenylamino)-pyrido[2,3-d]pyrimidine-7-carboxylic acid amide], the IC50 on Lck (p56^lck, active) was 73.8 nM; in assay [1], 6.9 nM.
